For one molecule, IC50 results are on record in patent US20200338028A1, “BENZENESULFONAMIDE DERIVATIVES AND METHOD FOR MODULATING LIPID RAFT” (Gongwin Biopharm Co., Ltd., priority 2017, published 2020).

Experiment [1] relates to DU-145 cells. Put plainly: SRB assay, anti-proliferative effect. The format is cell-based. To be noted: Homo sapiens; DU-145, SRB assay, FIG. 1A; read-out: IC50, inhibition of cell growth. How it is done:
Two castration-resistant prostate cancer (CRPC) cell lines of PC-3 and DU-145 were cultured in RPMI 1640 medium with 5% FBS (v/v), penicillin (100 units/ml) and streptomycin (100 μg/ml). Cultures were maintained in a 37° C. incubator with 5% CO2, and adherent cultures were passaged using 0.05% trypsin-EDTA when they reached about 80% confluence. Prostate cells were from human tissue samples which were obtained following informed consent of the donors and after full review by the Ethics Review Committee at National Taiwan University Hospital. The prostate specimens were from males by transurethral resection of the prostate. All patients with prostatism histories were diagnosed to have benign prostate hyperplasia by rectal digital examination, transrectal sonography of prostate and urodynamic studies. […] SRB assay is an accurate and reproducible assay based upon quantitative SRB staining of cellular proteins, and the process for SRB assay was performed as follows. […] The absorbance of SRB was measured at a wavelength of 515 nm at the time of p-TSA addition (hereinafter referred to as time zero, TZ), and after additional incubation of DMSO (hereinafter referred to as control growth, CTL) or p-TSA (hereinafter referred to as Tx). The percentage of cell growth inhibition was calculated by the formula of [1−(Tx−TZ)/(CTL−TZ)]×100%. […]
(In general: In SRB staining, fixed cells bind dye roughly in proportion to their protein.)

In experiment [2] the test system is PC-3 cells. Description: SRB assay, anti-proliferative effect. The format is cell-based. To be noted: Homo sapiens. How it is done: Two castration-resistant prostate cancer (CRPC) cell lines of PC-3 and DU-145 were cultured in RPMI 1640 medium with 5% FBS (v/v), penicillin (100 units/ml) and streptomycin (100 μg/ml). Cultures were maintained in a 37° C. incubator with 5% CO2, and adherent cultures were passaged using 0.05% trypsin-EDTA when they reached about 80% confluence. Prostate cells were from human tissue samples which were obtained following informed consent of the donors and after full review by the Ethics Review Committee at National Taiwan University Hospital. The prostate specimens were from males by transurethral resection of the prostate. All patients with prostatism histories were diagnosed to have benign prostate hyperplasia by rectal digital examination, transrectal sonography of prostate and urodynamic studies. Isolation of human prostatic cells from prostatic tissue explants was described in the previous study. The prostate cells were with less amount lipid rafts compared to prostate cancer cells.
SRB assay, colonogenic assay, and carboxyfluorescein succinimidyl ester (CFSE) staining were used for anti-proliferative determination. SRB assay is an accurate and reproducible assay based upon quantitative SRB staining of cellular proteins, and the process for SRB assay was performed as follows. Each individual PC-3 and DU-145 cells were seeded in 96-well plates in medium with 10% FBS. After 24 h, PC-3 and DU-145 cells were fixed with 10% TCA to represent cell population at the time of p-TSA addition. […] The absorbance of SRB was measured at a wavelength of 515 nm at the time of p-TSA addition (hereinafter referred to as time zero, TZ), and after additional incubation of DMSO (hereinafter referred to as control growth, CTL) or p-TSA (hereinafter referred to as Tx). The percentage of cell growth inhibition was calculated by the formula of [1−(Tx−TZ)/(CTL−TZ)]×100%. […]
To further substantiate the role of Akt, the Myr-Akt overexpressed PC-3 cells were prepared with the method shown as follows. […] Furthermore, the functional rescue of Myr-Akt was determined. […]

Read-outs that look alike come from different tables or passages of the source.

By IC50 is commonly meant the concentration that gives 50% inhibition. On to `Cc1ccc(S(N)(=O)=O)cc1` [p-TSA, para-toluenesulfonamide], for which the IC50 in experiment [1] is about 3000 µM; in experiment [2] (PC-3, 48 h, PC-3 overexpressing constitutively active Myr-Akt, 48 hours, FIG. 4E, read-out: IC50, growth inhibition, SRB assay), 2180 ± 100 µM; in experiment [2] (PC-3, 48 h, PC-3 without Myr-Akt overexpression, 48 hours, FIG. 4E, read-out: IC50, growth inhibition, SRB assay) it was 1970 ± 10 µM; in experiment [2] (PC-3, PC-3, SRB assay, FIG. 1A, read-out: IC50, inhibition of cell growth), about 3000 µM.
